From US20260167623A1 (NIKANG THERAPEUTICS, INC., priority 2022, published 2026)

Tests used:
CDK2 [1] = target: T1, CDK2 (Homo sapiens, UniProt P24941); assay: High-throughput HTRF measurement of cellular endogenous CDK2 level (degradation, DC50/Dmax) in OVCAR3 cells, 6 h; assay type: cell-based; conditions: 6 h compound treatment, HTRF total CDK2, read-out: DC50_OVCAR3_6h
T1 construct: High-Throughput Measurement of Cellular Endogenous CDK2; endogenous in cells; host or cells: OVCAR3
Outline: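 OVCAR3 cells were treated overnight after seeding with compounds at 0.03–1,000 nM for 6 h, then lysed. Total CDK2 was quantified by HTRF (d2- and Eu-cryptate anti-CDK2 antibodies, […] ratio) after overnight incubation at room temperature. Data normalized to DMSO (0%) and lysis buffer (100% degradation); DC50 from four-parameter logistic fit.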

CDK2 [2] = target: T1, CDK2; assay: Inhibition of CDK2: phospho-Rb (S807/811) HTRF measurement in OVCAR3 cells, 24 h; assay type: cell-based; conditions: 24 h compound treatment, read-out: pRB_OVCAR3_24h
Outline: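 OVCAR3 cells, seeded overnight, were exposed to compounds at 0.3 to 10,000 nM for 24 h, then lysed. Rb S807/811 phosphorylation read by HTRF (665/620 nm ratio) after 4 h detection at room temperature; data normalized to DMSO and IC50 from four-parameter logistic fit.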

| Compound | DC50 (CDK2 [1]) | IC50 (CDK2 [2]) |
| --- | --- | --- |
| O=C1CCC(N2Cc3cc(N4CCC(N5CC(Oc6cccc(S(=O)(=O)N7CCC(Nc8ncc(Cl)cn8)CC7)c6)C5)CC4)ccc3C2=O)C(=O)N1 (stereo not shown) [Example 105, 3-(5-(4-(3-(3-((4-((5-chloropyrimidin-2-yl)amino)piperidin-1-yl)sulfonyl)phenoxy)-azetidin-1-yl)piperidin-1-yl)-1-oxoisoindolin-2-yl)piperidine-2,6-dione] | 10 to 100 nM | 100 to 500 nM |
| Cn1nc(N2CCC(=O)NC2=O)c2ccc(C3CCC(CN4CCN(c5cccc(S(=O)(=O)N6CCC(Nc7ncc(Cl)cn7)CC6)c5)CC4)CC3)cc21 (stereo not shown) [Example 224, 1-(6-(4-((4-(3-((4-((5-chloropyrimidin-2-yl)amino)piperidin-1-yl)sulfonyl)phenyl)piperazin-1-yl)methyl)cyclohexyl)-1-methyl-1H-indazol-3-yl)dihydropyrimidine-2,4(1H,3H)-dione] | 10 to 100 nM | 1 to 100 nM |
| Cn1nc(N2CCC(=O)NC2=O)c2cc(F)c(C3CCN(Cc4cccc(S(=O)(=O)N5CCC(Nc6ncc(Cl)cn6)CC5)c4)CC3)cc21 [Example 23, 1-(6-(1-(3-((4-((5-chloropyrimidin-2-yl)amino)piperidin-1-yl)sulfonyl)benzyl)-piperidin-4-yl)-5-fluoro-1-methyl-1H-indazol-3-yl)dihydropyrimidine-2,4(1H,3H)-dione] | 10 to 100 nM | 100 to 500 nM |
| Cn1nc(N2CCC(=O)NC2=O)c2ccc(C3CCN(Cc4ccc(S(=O)(=O)N5CCC(Nc6ncc(OC(F)F)cn6)CC5)cc4)CC3)cc21 [Example 241, 1-(6-(1-(4-((4-((5-(difluoromethoxy)pyrimidin-2-yl)amino)piperidin-1-yl)sulfonyl)benzyl)piperidin-4-yl)-1-methyl-1H-indazol-3-yl)dihydropyrimidine-2,4(1H,3H)-dione] | 1 to 10 nM | 1 to 100 nM |
| Cn1nc(-n2ccc(=O)[nH]c2=O)c2ccc(C3CCN(CC4CCN(c5cccc(S(=O)(=O)N6CCC(Nc7ncc(C(F)(F)F)cn7)CC6)c5)CC4)CC3)cc21 [Example 211, 1-(1-methyl-6-(1-((1-(3-((4-((5-(trifluoromethyl)pyrimidin-2-yl)amino)piperidin-1-yl)sulfonyl)phenyl)piperidin-4-yl)methyl)piperidin-4-yl)-1H-indazol-3-yl)pyrimidine-2,4(1H,3H)-dione] | 1000 to 5000 nM | 1 to 100 nM |

Continued, values first:

| DC50 (CDK2 [1]) | IC50 (CDK2 [2]) | Compound |
| --- | --- | --- |
| 1 to 10 nM | 1 to 100 nM | N#Cc1ccc(S(=O)(=O)N2CCC(Nc3ncc(C(F)(F)F)cn3)CC2)cc1N1CCC(CN2CCC(c3cccc4c3oc(=O)n4C3CCC(=O)NC3=O)CC2)CC1 (stereo not shown) [Example 198, 2-(4-((4-(3-(2,6-dioxopiperidin-3-yl)-2-oxo-2,3-dihydrobenzo[d]oxazol-7-yl)piperidin-1-yl)methyl)piperidin-1-yl)-4-((4-((5-(trifluoromethyl)pyrimidin-2-yl)amino)piperidin-1-yl)sulfonyl)benzonitrile] |
| 1 to 10 nM | 1 to 100 nM | Cn1c(=O)n(C2CCC(=O)NC2=O)c2cccc(C3CCN(CC4CCN(c5cc(F)cc(S(=O)(=O)N6CCC(Nc7ncc(OC(F)F)cn7)CC6)c5)CC4)CC3)c21 (stereo not shown) [Example 174, 3-(4-(1-((1-(3-((4-((5-(difluoromethoxy)pyrimidin-2-yl)amino)piperidin-1-yl)sulfonyl)-5-fluorophenyl)piperidin-4-yl)methyl)piperidin-4-yl)-3-methyl-2-oxo-2,3-dihydro-1H-benzo[d]imidazol-1-yl)piperidine-2,6-dione] |
| 1 to 10 nM | 1 to 100 nM | Cn1nc(N2CCC(=O)NC2=O)c2cc(F)c(C3CCN(Cc4cccc(S(=O)(=O)N5CCC(Nc6ncc(OC(F)F)cn6)CC5)c4)CC3)cc21 [Example 77, 1-(6-(1-(3-((4-((5-(difluoromethoxy)-pyrimidin-2-yl)amino)piperidin-1-yl)sulfonyl)benzyl)piperidin-4-yl)-5-fluoro-1-methyl-1H-indazol-3-yl)dihydropyrimidine-2,4(1H,3H)-dione] |
